# Experimental data reported in BindingDB's records for doi:10.1021/jm050113z (University of North Carolina at Chapel Hill, 2005).
# Molecular target: T1, Protein RecA (Escherichia coli (strain K12), UniProt P0A7G6)
# T1 sequence (P0A7G6 whole entry): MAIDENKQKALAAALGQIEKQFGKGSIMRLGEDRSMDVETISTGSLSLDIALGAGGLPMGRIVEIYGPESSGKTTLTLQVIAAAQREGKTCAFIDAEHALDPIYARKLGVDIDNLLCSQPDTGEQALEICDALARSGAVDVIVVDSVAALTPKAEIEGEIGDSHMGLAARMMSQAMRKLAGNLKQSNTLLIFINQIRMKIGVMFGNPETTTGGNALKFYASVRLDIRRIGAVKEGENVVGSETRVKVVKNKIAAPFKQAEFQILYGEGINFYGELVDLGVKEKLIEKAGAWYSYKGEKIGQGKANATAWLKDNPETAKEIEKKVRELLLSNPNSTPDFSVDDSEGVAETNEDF
# Assay: In vitro apparent inhibition constant against Escherichia coli RecA protein
smiles,measurement,value
O=P(O)(O)OP(=O)(O)OC[C@H]1O[C@@H](n2cnc3c(Nc4cccc5ccccc45)ncnc32)[C@H](O)[C@@H]1O,Ki,46 µM
